Laboratory results from publication PMC12153338, “Resistance to oxyimino-cephalosporins conferred by an alternative mechanism of hydrolysis by the Acinetobacter-derived cephalosporinase-33 (ADC-33), a class C β-lactamase present in carbapenem-resistant Acinetobacter baumannii (CRAb)” (mBio, 2025).
≈ marks a conversion by molar mass, not a printed value. Read-outs that look alike come from different tables or passages of the source.

Legend:
[1] = test system: ADC-217 in DH10B Escherichia coli; assay: MIC by broth microdilution, ADC-217 in DH10B E. coli; type: cell-based; details: DH10B E. coli expressing ADC-217 (non-Adup) from pBCSK−, FDC in iron-depleted cation-adjusted MH broth, mode of triplicate
Protocol: (§1) Susceptibility testing to standard antibiotics was performed by broth microdilution according to 2024 Clinical and Laboratory Standards Institute (CLSI) guidelines ([38]). MICs for FDC were done in iron-depleted cation-adjusted Mueller-Hinton (MH) broth according to CLSI methods. All MICs were interpreted according to the 2024 CLSI guidelines ([38]). MICs are done in triplicate, and the mode MIC value is reported.
(§2) blaADC-7 pBCSK− was cloned and expressed in E. coli DH10B cells as previously described for MIC determinations ([3]). The pBCSK-non-inducible phagemid vector has a chloramphenicol resistance gene used to aid selection. All other blaADC variants were synthesized by GenScript according to the blaADC-7 pBCSK− strategy, cloning into the XbaI/BamHI sites of the pBCSK− vector ([5]).

[2] = test system: ADC-33 in DH10B Escherichia coli; assay: MIC by broth microdilution, ADC-33 in DH10B E. coli; type: cell-based; details: DH10B E. coli expressing ADC-33 (Adup) from pBCSK−, FDC in iron-depleted cation-adjusted MH broth, mode of triplicate
Protocol: as §1, §2

[3] = test system: ADC-172 in DH10B Escherichia coli; assay: MIC by broth microdilution, ADC-172 in DH10B E. coli; type: cell-based; details: for MIC: DH10B E. coli expressing ADC-172 (Adup) from pBCSK−, FDC in iron-depleted cation-adjusted MH broth, mode of triplicate
Protocol: as §1, §2

[4] = test system: ADC-218 in DH10B Escherichia coli; assay: MIC by broth microdilution, ADC-218 in DH10B E. coli; type: cell-based; details: DH10B E. coli expressing ADC-218 (Adup) from pBCSK−, FDC in iron-depleted cation-adjusted MH broth, mode of triplicate
Protocol: as §1, §2

[5] = test system: DH10B Escherichia coli pBCSK− no insert; assay: MIC by broth microdilution, DH10B E. coli with pBCSK− no insert; type: cell-based; details: DH10B E. coli with pBCSK− no insert (control strain), FDC in iron-depleted cation-adjusted MH broth
Protocol: as §1, §2

DH10B alone = assay: MIC by broth microdilution, DH10B alone; type: cell-based; details: Escherichia coli; DH10B alone (control strain); FDC in iron-depleted cation-adjusted MH broth
Protocol: as §1, §2

ADC-7 = ADC-7 (Acinetobacter baumannii, UniProt Q6DRA1); assay: Competition kinetics with nitrocefin (Ki), ADC-7; type: biochemical; details: 3 min pre-incubation, Cheng-Prusoff corrected
Protocol: (§3) For inhibition kinetics, utilizing NCF as a colorimetric substrate of ADCs, the inhibition constant (Ki) of CAZ and FDC with ADCs was determined using competition kinetics as previously described ([5]). After a 3 min pre-incubation of the enzyme (2 nM) with increasing concentration of the inhibitor, measurements of the initial velocities were performed with the addition of 100–200 µM NCF (twofold of the experimentally determined KM value). To determine the average velocities (v0), data from three experiments were fit to the followingequation: […]
(§4) where vu represents the NCF uninhibited velocity and IC50 represents the inhibitor concentration that results in a 50% reduction of vu. The Ki value was corrected for the NCF affinity (KM values for each ADC) with the Cheng-Prusoff ([5]) equation: […]
(§5) The standard error for Ki values was generated by factoring in the larger of the proportional standard errors for the individual IC50 value and the KM -NCF value.

ADC-30 [6] = target: T1, ADC-30 (Acinetobacter baumannii, UniProt A7XM81); assay: Competition kinetics with nitrocefin (Ki), ADC-30; type: biochemical; details: 3 min pre-incubation, Cheng-Prusoff corrected
Protocol: as §3, §4, §5

ADC-73 = ADC-73 (Acinetobacter baumannii, UniProt A0A059ZDI2); assay: Competition kinetics with nitrocefin (Ki), ADC-73; type: biochemical; details: 3 min pre-incubation, Cheng-Prusoff corrected
Protocol: as §3, §4, §5

ADC-143 = ADC-143 (Acinetobacter baumannii, UniProt Q6DRA1, Q144K, form not given); assay: Competition kinetics with nitrocefin (Ki), ADC-143; type: biochemical; details: 3 min pre-incubation, Cheng-Prusoff corrected
Protocol: as §3, §4, §5

ADC-217 [7] = target: T2, ADC-217 (Acinetobacter baumannii, UniProt Q6DRA1, V286E, form not given); assay: Competition kinetics with nitrocefin (Ki), ADC-217; type: biochemical; details: 3 min pre-incubation, Cheng-Prusoff corrected
Protocol: as §3, §4, §5

ADC-33 [8] = target: T3, ADC-33 (Acinetobacter baumannii, UniProt A7Y407); assay: Competition kinetics with nitrocefin (Ki), ADC-33; type: biochemical; details: 3 min pre-incubation, Cheng-Prusoff corrected
Protocol: as §3, §4, §5

ADC-172 = ADC-172 (Acinetobacter baumannii, UniProt A7Y407, N321K); assay: Competition kinetics with nitrocefin (Ki), ADC-172; type: biochemical; details: 3 min pre-incubation, Cheng-Prusoff corrected
Protocol: as §3, §4, §5

ADC-30 [9] = target: T1, ADC-30; assay: Timed electrospray ionization mass spectrometry of acylated adducts, ADC-30; type: binding; details: ADC-30, +468 Da adduct, at 1 h; enzyme:substrate 1:25
Protocol: (§6) β-Lactamase (5 µg) was incubated with substrate at a molar ratio of 1:25 (FDC, CAZ, meropenem [MEM]) in sterile 10 mM PBS, pH 7.4, for a total reaction volume of 20 µL (t = 30 s, 1 min, 15 min, 30 min, 1 h, 2 h, and 24 h). Reactions were quenched with 1% acetonitrile and 0.1% formic acid. Samples were analyzed using Q-TOF Waters Synapt-G2-Si and a Waters Acquity ultrapressure liquid chromatography BEH C18 column (1.7 µm […]; 2.1 × 50 mm). MassLynx v.4.1 was used to deconvolute protein peaks. The tune settings for each data run were as follows: capillary voltage at 3.5 kV, sampling cone at 35, source offset at 35, source temperature 100°C, desolvation temperature 500°C, cone gas at 100 L/h, desolvation gas at 800 L/h, and nebulizer bar at 6.0. Mobile phase A was 0.1% formic acid-water. Mobile phase B was 0.1% formic acid-acetonitrile. The mass accuracy for this system is ±5 Da. Mass spectrometry experiments were performed once over a range of time points.

ADC-33 [10] = target: T3, ADC-33; assay: Timed electrospray ionization mass spectrometry of acylated adducts, ADC-33; type: binding; details: ADC-33, incubation 30 s–1 h; enzyme:substrate 1:25
Protocol: as §6

ADC-30 [11] = target: T1, ADC-30; assay: Thermal denaturation by circular dichroism, ADC-30; type: binding; details: ADC-30 12 µM, 1 mM antibiotic, PBS pH 7.4; read-out: change of Tm of the β-lactamase on addition of antibiotic
Protocol: (§7) For thermal denaturation, protein samples were monitored for helical content by circular dichroism in the far-UV region at 210 and 220 nm using a Jasco J-815 spectrometer (Easton, MD) with a Peltier-effect temperature controller, as previously described ([41]). Enzyme concentrations were 12 µM in phosphate-buffered saline (PBS) pH 7.4. The thermodynamic stability of apoADC-30 and ADC-33, and with 1 mM FDC and CAZ, was determined from equilibrium unfolding curves. With the assumption of a reversible two-state transition, we determined the Tm at the midpoint of equilibrium folding. Thermal denaturation experiments were done in duplicate under the same conditions, with each data point representing the average of three successive scans, and the Tm values are consistent with ±1°C variation.

ADC-33 [12] = target: T3, ADC-33; assay: Thermal denaturation by circular dichroism, ADC-33; type: binding; details: ADC-33 12 µM, 1 mM antibiotic, PBS pH 7.4
Protocol: as §7

ADC-33 [13] = target: T3, ADC-33; details: hydrolysis by ADC-33; previously determined; cited from earlier work
CRAb isolates = details: certain CRAb isolates with elevated MICs; cited from earlier work
[14] = test system: ADC-7 in DH10B Escherichia coli; assay: MIC by broth microdilution, ADC-7 in DH10B E. coli; type: cell-based; details: DH10B E. coli expressing ADC-7 (non-Adup) from pBCSK−, FDC in iron-depleted cation-adjusted MH broth, mode of triplicate
Protocol: as §1, §2

[15] = test system: ADC-30 in DH10B Escherichia coli; assay: MIC by broth microdilution, ADC-30 in DH10B E. coli; type: cell-based; details: DH10B E. coli expressing ADC-30 (non-Adup) from pBCSK−, FDC in iron-depleted cation-adjusted MH broth, mode of triplicate
Protocol: as §1, §2

[16] = test system: ADC-73 in DH10B Escherichia coli; assay: MIC by broth microdilution, ADC-73 in DH10B E. coli; type: cell-based; details: DH10B E. coli expressing ADC-73 (non-Adup) from pBCSK−, FDC in iron-depleted cation-adjusted MH broth, mode of triplicate
Protocol: as §1, §2

[17] = test system: ADC-143 in DH10B Escherichia coli; assay: MIC by broth microdilution, ADC-143 in DH10B E. coli; type: cell-based; details: DH10B E. coli expressing ADC-143 (non-Adup) from pBCSK−, FDC in iron-depleted cation-adjusted MH broth, mode of triplicate
Protocol: as §1, §2

[18] = test system: ADC-219 in DH10B Escherichia coli; assay: MIC by broth microdilution, ADC-219 in DH10B E. coli; type: cell-based; details: DH10B E. coli expressing ADC-219 (Adup) from pBCSK−, FDC in iron-depleted cation-adjusted MH broth, mode of triplicate
Protocol: as §1, §2

ADC-217 [19] = target: T2, ADC-217; assay: Steady-state hydrolysis kinetics, ADC-217; type: biochemical; details: hydrolysis by ADC-217
Protocol: Steady-state kinetic parameters were determined by combining pure enzyme with antibiotic substrates in 50 mM NaH2PO4, pH 7.4, at room temperature. Changes in absorbance were measured on the Cary 60 UV−Vis spectrophotometer (Agilent Technologies) and converted to velocity using the change in extinction coefficient specific to nitrocefin (NCF) (ε482 = 17,400 M^−1·cm^−1), CAZ (ε260 8,660 M^−1·cm^−1), and cefiderocol (ε259 9,430 M^−1·cm^−1). The concentration of enzyme ranged from 0.1 to 1.0 µM, and all kinetic experiments were performed at least in triplicate. Initial velocities were fitted to the Michaelis-Menten equation, yielding kcat and KM values. The standard error for kcat/KM values was generated by factoring in the larger of the proportional standard errors for the individual kcat value and the KM value. For ADC/substrate combinations in which the KM was too large to accurately determine both kcat and KM values, the initial velocities at kcat/KM values were calculated from linear fits of vo in low [S] ranges (<0.08 * KM).

[20] = Escherichia coli, read-out: MIC

Structure (SMILES)	MIC [1]	MIC [2]	MIC [3, 20]	MIC [4]	MIC [5]	MIC (DH10B alone)	MIC [14]	MIC [15]	MIC [16]	MIC [17]	MIC [18]	further results
CC(C)(O/N=C(\C(=O)N[C@@H]1C(=O)N2C(C(=O)[O-])=C(C[N+]3(CCNC(=O)c4ccc(O)c(O)c4Cl)CCCC3)CS[C@H]12)c1csc(N)n1)C(=O)O [FDC, cefiderocol]	0.25 µg/mL (≈ 0.332 µM)	0.5 µg/mL (≈ 0.665 µM)	1 µg/mL (≈ 1.33 µM)	0.5 µg/mL (≈ 0.665 µM)	0.125 µg/mL (≈ 0.166 µM)	0.06 µg/mL (≈ 0.0798 µM)	–	–	–	–	–	MIC [3]: 1.0 µg/mL (≈ 1.33 µM); Ki (ADC-7): 75 ± 5.32 µM; Ki (ADC-30 [6]): 62.7 ± 3.95 µM; Ki (ADC-73): 111 ± 9.7 µM; Ki (ADC-143): 171 ± 27.7 µM; Ki (ADC-217 [7]): 0.21 ± 0.025 µM; Ki (ADC-33 [8]): 19.3 ± 1.46 µM; Ki (ADC-172): 3.26 ± 0.31 µM; percentage of acylated adduct (ADC-30 [9]): 70%; formation of stable acyl-enzyme adduct (ADC-33 [10]): did not form a stable acyl-enzyme adduct; ΔTm at 1000 µM (ADC-30 [11]): 2 °C; change of Tm of the β-lactamase on addition of antibiotic (ADC-33 [12]): not observed; kcat (ADC-33 [13]): 0.60 s⁻¹; MIC (CRAb isolates): ≥ 64 µg/mL
CO/N=C(\C(=O)N[C@@H]1C(=O)N2C(C(=O)O)=C(COC(C)=O)CS[C@H]12)c1csc(N)n1 [CTX, cefotaxime]	64 µg/mL (≈ 141 µM)	64 µg/mL (≈ 141 µM)	32 µg/mL (≈ 70.3 µM)	256 µg/mL (≈ 562 µM)	0.06 µg/mL (≈ 0.132 µM)	0.12 µg/mL (≈ 0.263 µM)	64 µg/mL (≈ 141 µM)	32 µg/mL (≈ 70.3 µM)	32 µg/mL (≈ 70.3 µM)	32 µg/mL (≈ 70.3 µM)	32 µg/mL (≈ 70.3 µM)	–
CO/N=C(\C(=O)N[C@@H]1C(=O)N2C(C(=O)[O-])=C(C[N+]3(C)CCCC3)CS[C@H]12)c1csc(N)n1 [FEP, cefepime]	16 µg/mL (≈ 33.3 µM)	1 µg/mL (≈ 2.08 µM)	8 µg/mL (≈ 16.6 µM)	4 µg/mL (≈ 8.32 µM)	0.03 µg/mL (≈ 0.0624 µM)	0.06 µg/mL (≈ 0.125 µM)	0.5 µg/mL (≈ 1.04 µM)	0.5 µg/mL (≈ 1.04 µM)	0.25 µg/mL (≈ 0.52 µM)	0.25 µg/mL (≈ 0.52 µM)	0.125 µg/mL (≈ 0.26 µM)	fold increase in MIC from ADC-30 to ADC-172 ([3]; DH10B E. coli, ADC-172 versus ADC-30): ≤ 16 fold; Km (ADC-217 [19]): 155 µM; kcat (ADC-217 [19]): 30.2 s⁻¹
